Reference: PubChem BioAssay AID179 (DTP/NCI, 2004)
Calls of active or inactive are those of the source.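 The calls were made as follows: active = compounds giving half or more protection of infected cells from virus-caused growth loss, again on retest; inactive = the rest.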 Where a SMILES comes first, the peptide text is derived from it.

Test system: CEM cells HIV-1 protection, formazan growth assay
Experiment: NCI AIDS Antiviral Assay
Conditions: for IC50: measured here: growth of uninfected CEM cells
In short: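 Five concentrations of each compound were applied to infected and uninfected human CEM cells. Protection from HIV-1 was judged from growth measured with a soluble formazan assay.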

Structure (SMILES) | EC50 [µM] | IC50 [µM] | outcome
COc1cc(/C=C/C=C2\CC/C(=C\C=C\c3ccc(O)c(OC)c3)C2=O)ccc1O | > 200 | 13.2 | –
CC(C)N=C(N)CSS(=O)(=O)O | > 200 | > 200 | –
C=CCNC(=S)/N=C\C(C(=O)OCC)=C(/O)C(=O)OCC | > 200 | > 200 | –
CCc1c(N=[N+]=[N-])c2ccccc2oc1=O | – | – | inactive
CN(C)c1ccc(C=C2C(=O)NC(=O)NC2=O)cc1 | > 28.2 | > 28.2 | –
NC1=C(O)c2ccccc2C(=O)C1=O | – | – | inactive
COc1cc2c(cc1O)CN1CCC23C=C[C@@H](O)CC13 (some centres undefined) | > 912 | 38.9 | –
CC(=O)OC1[C@@H](OC(C)=O)CN(OCc2ccccc2)C[C@H]1OC(C)=O (some centres undefined) | > 200 | > 200 | –
O=C(NNC(c1ccccc1)C(F)(F)F)c1ccncc1 (centres undefined) | > 200 | > 200 | –
N=S(c1ccccc1)c1ccccc1[N+](=O)[O-] (centres undefined) | > 158 | 1.7 | –
CC(=O)Nc1ccc(S(=O)c2ccc(NC(C)=O)cc2)cc1 | > 81.3 | > 81.3 | –
Cc1occc1C(=S)Nc1ccc(Cl)c(C(=O)OC(C)(C)C)c1 | 0.0339 | 9.33 | –
COC(=O)c1cc(C(=CC(=O)N[C@@H]2CC[C@@]3(C)[C@@H](CC[C@@H]4[C@@H]3CC[C@]3(C)[C@@H]([C@H](C)CCCC(C)C)CC[C@@H]43)C2)c2cc(Cl)c(OC)c(C(=O)OC)c2)cc(Cl)c1OC | > 100 | > 100 | –
CCCCc1cc(=O)oc2c3c(c4c(c12)OC(C)(C)C=C4)O[C@H](C)[C@@H](C)[C@H]3O | > 63.1 | 15.5 | –
COC(=O)c1cc(=O)c2c(ccc3oc(=O)ccc32)[nH]1 | > 200 | 170 | –
C=CCN=C1N=C(CC(=O)OCC)CS1 | – | – | inactive
COCN1COCN(C)C1=O | > 1550 | > 1550 | –
CCCC1C(=O)Nc2cccc3ncn(c23)C1=O (centres undefined) | > 200 | 186 | –
CC(=O)NCCCCN(CCCNC(C)=O)C(=O)OCc1ccccc1 | > 200 | > 200 | –
Cc1c(CCCl)c(N=[N+]=[N-])n2c(nc3ccccc32)c1C#N | > 200 | 11 | –
C=C(c1cc(Br)c(OC)c(C(=O)OC)c1)c1cc(Br)c(OC)c(C(=O)OC)c1 | > 100 | > 100 | –
c1ccc(CN2COCO[C@H]3CCC[C@@H]32)cc1 | > 200 | 123 | –

Structure (SMILES) | EC50 [µM] | IC50 [µM] | outcome
NC(CO)C(=O)N1CCCC1C(=O)NC(Cc1ccc(O)cc1)C(=O)N1CCCC1C(=O)NC(CO)C(=O)O (centres undefined) (H-SPYPS-OH; configuration not given here) | > 112 | > 112 | –
CCCCCCCCCCCCCCCCCCCCOC1OC(CO)C(O)C(O)C1O (centres undefined) | > 3.63 | > 3.63 | –
C=C1c2ccccc2N(S(=O)(=O)c2ccc(C)cc2)C12CCCCC2 | > 100 | 38 | –
CC(C)C1CN(C(=O)OCc2ccccc2)C2N1C(=O)C2(C)OCc1ccccc1 (centres undefined) | > 251 | 97.7 | –
NC(N)=NS(=O)(=O)c1ccc(NC(=O)c2ccc3nc4ccccc4c(N)c3c2)cc1 | 102 | > 200 | –
CCn1ncc(N=O)c1N | > 200 | > 200 | –
CC(=O)C(=Cc1ccc(O)cc1)C(C)=O | > 1230 | 75.9 | –
O=C(Nc1nc2ncn(CC(COc3ccccc3)OC(=O)c3ccccc3)c2c(=O)[nH]1)c1ccccc1 (centres undefined) | > 70.8 | > 70.8 | –
O=C(N/C=C(/c1ccccc1)S(=O)Cc1ccccc1)Nc1ccccc1Cl (centres undefined) | > 501 | 17.4 | –
Cc1ccc(SSc2nnnn2C)cc1 | > 200 | 11 | –
CCOC(=O)Cc1csc(Nc2ccc(OCC)cc2)n1 | > 214 | 145 | –
CC(C)O/C=C1\CCc2ccccc2C1=O | > 200 | 36.3 | –
COc1cc(O)c2c(c1)C(O)C(O)CC1OC1C(=O)/C=C/CC(C)OC2=O (centres undefined) | > 75.9 | 0.977 | –
CN1CCN(c2c(C(=O)Nc3ccc([N+](=O)[O-])cc3)cc([N+](=O)[O-])cc2[N+](=O)[O-])CC1 | > 200 | > 100 | –
CN(C)Cc1cc(CN(C)C)c(O)c(CN(C)C)c1 | > 200 | > 200 | –
Cc1nc2c(n1-c1ccc(Br)cc1)C(=O)c1ccccc1C2=O | > 49 | 5.25 | –
COc1ccc(CCNC(=O)Cc2ccccc2CCO)cc1OC | > 200 | > 200 | –
COc1ccc(C(O)C(C)C(O)(C(F)(F)F)C(F)(F)F)cc1 (centres undefined) | > 200 | 95.5 | –
O=Cc1cc(C(=O)OCc2ccccc2)n(S(=O)(=O)c2ccccc2)c1 | > 200 | 17.4 | –
Nc1ncnc2c1C=C(B(O)O)B(O)N2 | > 126 | 74.1 | –
CC(C)=CCc1c(-c2ccc(O)cc2O)oc2c3c(cc(O)c2c1=O)OC(C)(C)C=C3 | > 17.4 | 13.8 | –
C/C(=N/NC(=O)c1ccncc1)c1ccc(NC(=O)C(=O)Nn2c(=S)[nH]c3ccccc3c2=O)cc1 | > 51.3 | > 51.3 | –

Structure (SMILES) | EC50 [µM] | IC50 [µM] | outcome
CCO/C=C(\C)CC1([N+](=O)[O-])C(=O)c2ccccc2C1=O | – | – | inactive
COc1cc(OC)cc(Oc2nc3ccc(C(F)(F)F)cc3nc2-c2ccccc2)c1 | > 200 | > 200 | –
O=C1c2cccc(O)c2Cc2c(O)cc(CO)cc21 | > 100 | 52.5 | –
CC(C)=CC1CC(n2cc(C)c(=O)[nH]c2=O)ON1CCO (centres undefined) | > 200 | > 200 | –
NNC(=O)CCC(=O)Nc1cc(Cl)c(Cl)cc1Cl | > 115 | > 115 | –
O=C(Nc1ccccc1)OCC1OCOC(COC(=O)Nc2ccccc2)C1OC(=O)Nc1ccccc1 (centres undefined) | > 200 | 4.47 | –
O=[N+]([O-])/C(Cl)=C(\NCCO)C(Cl)=C(Cl)Cl | > 200 | 63.1 | –
Cc1cn(C2CC(N=[N+]=[N-])C(COP(=O)(OCC(=O)c3ccco3)OCC(=O)c3ccco3)O2)c(=O)[nH]c1=O (centres undefined) | 0.00457 | 2 | –
CCOC(=O)CCC(NC(=O)c1ccc(Nc2cnc3cc(C(F)(F)F)ccc3n2)cc1)C(=O)OCC (centres undefined) | > 200 | 191 | –
O=C1Oc2ccccc2C(=O)/C1=C/N1C(=O)/C(=C/c2ccc([N+](=O)[O-])cc2)SC1=S | > 200 | 1.1 | –
Cc1cc(O)c(C=NC(=S)c2cccnc2)c(=O)o1 | > 200 | 77.6 | –
C/C(=N\NC(=S)N1CCN(c2ccccn2)CC1)c1ncccn1 | > 39.8 | 0.0479 | –
Nc1ccc2c(SCc3ccc([N+](=O)[O-])cc3)c3ccccc3nc2c1 | > 20 | 3.02 | –
CN(C)CC1CCCC(CN(C)C)C1O (centres undefined) | > 871 | > 871 | –
CC1(C)C/C(=N/O)c2c(nc3ccc4ccccc4c3c2-c2ccc(Cl)cc2)C1 | > 100 | 37.2 | –
COc1cccc(/C=N/[N-]C(N)=O)c1[O-].[OH3+].[Pd+2] | > 21.9 | > 21.9 | –
CC1CCC2C(C)C3C(CC4C5CC=C6CC(O)CCC6(C)C5CCC43COC(=O)c3ccccc3)N2C1 (centres undefined) | > 69.2 | > 69.2 | –
CO/N=C1\CC(n2cc(C)c(=O)[nH]c2=O)OC1CO (centres undefined) | > 200 | > 200 | –
O=[N+]([O-])c1ccc(-c2ccc(-c3csc(Nc4ccccc4)n3)o2)cc1 | > 37.2 | 6.76 | –
CC(=O)NNC(=S)/N=C\c1c(O)[nH]c(=O)[nH]c1=O | > 200 | > 200 | –
